Where two headings read alike, the source gives them in different places.
Experiments:
Con A [1] = biological target: T1, Con A (Canavalia ensiformis, UniProt P02866); assay: Inhibition of Con A binding to liposomes by mixtures of α-MM and myo-inositol; details: for relative inhibitory potency, PI present in the liposomes: liposomes containing PI; for type of inhibition on simultaneous addition of both inhibitors: simultaneous addition of both inhibitors to Con A and liposomes
T1 construct: purchased Sigma Chemical Co., St. Louis, MO
Experimental: Similar incubations as those described in FIG. 1 were set up with liposomes and Con A. Myo-inositol and α-MM were mixed together as inhibitors in the concentrations indicated.
(§1) Studies on the binding of Con A to liposomes were performed as follows: Con A and inhibitors (if present) in the concentrations indicated in the individual figures were incubated with 100 μl of liposomes in a final volume of 1.0 ml of buffer for 45 minutes at 25° C. After incubation, liposomes were washed twice with 2 ml portions of 0.9% NaCl-0.01M NaHCO3 (pH 7.0) and collected by centrifugation at 140,000 g for 5 minutes. Bicarbonate-saline was the buffer used throughout for solution, washing and dilutions. Specific protein binding to liposomes was measured by a Lowry assay adapted to measurement of proteins on liposomes as described previously (Alving, C. R., and Kinsky, S. C. (1971) Immunochemistry, Vol. 8, pages 325-343).
In order to characterize further the binding of Con A to liposomal PLs, and especially to PI, we mixed varying concentrations of α-MM with varrying concentrations of myo-inositol. Our reasoning was that if α-MM and myo-inositol complete for the same binding site we would record similar inhibitions to those shown in FIG. 2. […] The opposite occurred with liposomes lacking PI.

Con A [2] = biological target: T1, Con A; assay: Inhibition of Con A binding to liposomes
Experimental: Similar incubations as those described in FIG. 1 were set up with liposomes and Con A. α-MM (FIG. 2a) or myo-inositol (FIG. 2b) were used as inhibitors in the concentrations indicated.
Liposomes containing PL (DMPC, or DMPC/PI) and cholesterol in molar ratios 2/1.5 were used throughout. When PI was included in the liposomes, it was in a 1/1 molar ratio with DMPC. Preparation of liposomes (multilamellar vesicles) is reported in detail (Alving, C. R., Shichijo, S., and Mattsby-Baltzer, I. (1984) in Liposome Technology, (G. Gregoriadis, edition), Vol. II, pages 157-175, CRC, Boca Raton, FL). Briefly, lipids (PLs and cholesterol) were dried in vacuo in pear-shaped flasks and dispersed in a small volume of 0.15M NaCl with the aid of a few acid washed glass beads. The final PL concentration in the aqueous dispersion was 10 mM.
as §1
Con A binding to mannose is widely accepted as the major binding specificity for Con A, and inhibition of Con A by α-MM is often used as a criterion for specificity of binding (Lis, H. and Sharon, N. (1973) Ann. Rev. Biochem., Vol. 42, pages 541-574). […] Since Con A binding was increased by the presence of PI in the liposomes we tried to inhibit it by adding increasing concentrations of myo-inositol as a soluble inhibitor. […] Therefore we conclude that the binding of Con A to PI is specific and probably involves the inositol moiety of PI.

Con A [3] = biological target: T1, Con A; assay: Binding to Con A by equilibrium dialysis, Scatchard plot
Text: Equilibrium dialysis (microtechnique), as described by Karush, et al. (Karush, F., Karush, S. S. and Eisen, H. N. (1971) in Methods of Immunology and Immunochemistry (C. A. Williams, and M. W. Chase, Edition), Vol. III, pages 383-394, Academic Press, NY) was used to determine the binding of Con A to α-mannose, α-L-fucose, or myo-inositol. The data were plotted according to the method of Scatchard (Scatchard, G. (1949) Ann. N.Y. Acad. Sci., Vol. 51, pages 660-672).
The binding of Con A to α-D-[^3 H]-mannose or myo-[^3 H]-inositol in 0.01M bicarbonate-saline, pH 7.0, at room temperature was investigated by equilibrium dialysis. […] The ratio of the molar concentration of the bound sugar to that of protein is represented by r, c is the molar concentration of free sugar, n is the number of binding sites and K, the binding constant. A molecular weight of 108,000 for Con A was used in the calculations since Con A is a tetramer at neutral pH and the monomer mol wt. is 27,000.

mouse spleen lymphocytes = assay: Suppression of Con A-induced lymphocyte mitogenesis ([3H]-thymidine); format: cell-based; details: for DPM × 10^-3 ([3H]-thymidine, DNA synthesis): geometric mean of quadruplicate ±1 S E, no inhibitor 124 ± 10; for inhibition at 40000 µM: Mus musculus, Lymphocyte, read-out: % SUPPRESSION; for inhibition of Con A-induced lymphocyte mitogenesis: added simultaneously with Con A, in words
Text: Mitogenic determination were made on 12 weeks old male C3 HeB/FeJ mouse (Jackson Laboratory, Bar Harbour, ME) spleen cells. The method used for cell preparation and assay of mitogenic activity is described elsewhere (Richardson, E. C., and Alving, C. R. (1984) Rev. Infect. Dis., Vol. 6, pages 532-534). Briefly spleen cells were extracted into HSB (HEM Research Inc., Rockville, MD), purified on a Ficoll-Hypaque solution, washed twice with HBS and suspended in a medium containing Eagles MEM with Earle's salts (GIBCO, Grand Island, NY), penicillin 100 μg/ml and streptomycin 100 μg/ml (GIBCO), 5×10^-5 M 2-mercaptoethanol (Matheson, Coleman and Bell, Norwood, OH) and 5% fetal bovine serum (MBA, Walkersville, MD). Cultures containing 2×10^5 viable cells/0.2 ml were prepared in 96 wells microtiter plates (Linbro Chemical Co., New Haven, CT) containing Con A ([…] Con A protein/ml culture) with either 40 μmoles/ml α-MM or myo-inositol. Cultures were incubated at 37° C. in 5% CO2 and air for 48 hours. Four hours prior to harvesting, the cells were pulsed with 1 μCi of [^3 H]-thymidine, harvested on glass fiber filters with a cell harvester and the radioactivity determined by liquid scintillation.
Cultures containing 2×10^5 mouse spleen lymphocytes in 0.2 ml medium were stimulated with 6 μg Con A/ml in the presence of 40 μmoles/ml of α-MM or myo-inositol and incubated for 48 hours. DNA synthesis was determined by pulsing the cultures 4 hours prior to harvesting with 1 μCi of [^3 H]-thymidine. The values represent the geometric mean of quadruplicate cultures ±1 S E.

[4] = myo-inositol and α-MM simultaneously used, FIG. 4
[5] = 6 μg Con A/ml, 40 μmoles/ml inhibitor, 48 hours

| SMILES | relative inhibitory potency, PI present in the liposomes (Con A [1]; [4]) | type of inhibition on simultaneous addition of both inhibitors (Con A [1]) | IC50 (Con A [2]) | Kd (Con A [3]) | DPM × 10^-3 ([3H]-thymidine, DNA synthesis) (mouse spleen lymphocytes; [5]) | inhibition at 40000 µM (mouse spleen lymphocytes; [5]) | inhibition of Con A-induced lymphocyte mitogenesis (mouse spleen lymphocytes) | inhibition of Con A binding to liposomes containing PI (Con A [2]; increasing concentrations, liposomes containing PI) | inhibition of Con A binding to liposomes lacking PI (Con A [2]; increasing concentrations, liposomes lacking PI) | binding to Con A (Con A [3]; 0.01M bicarbonate-saline, pH 7.0, room temperature) | relative inhibitory potency, PI absent from liposomes (Con A [1]; myo-inositol and α-MM simultaneously used, liposomes lacking PI, FIG. 4) | inhibition at 1000 µM (Con A [2]; read-out: inhibition of Con A binding to DMPC liposomes) | inhibition at 1000 µM (Con A [2]; read-out: inhibition of Con A binding to DMPC/PI liposomes) | inhibition at 40000 µM (mouse spleen lymphocytes; 48 h) |
| --- | --- | --- | --- | --- | --- | --- | --- | --- | --- | --- | --- | --- | --- | --- |
| O[C@H]1[C@H](O)[C@@H](O)[C@H](O)[C@@H](O)[C@H]1O [myo-inositol] | the more potent inhibitor | non-competitive | 10 mM | 0.769 mM | 86 ± 8 DPM × 10^-3 | 31% | significant inhibition was observed | – | – | – | – | – | – | – |
| C[C@@H]1O[C@@H](O)[C@@H](O)[C@H](O)[C@@H]1O [α-L-fucose] | – | – | – | – | – | – | No inhibition | no inhibition was observed | no inhibition was observed | No binding could be detected | – | – | – | – |
| CO[C@H]1O[C@H](CO)[C@@H](O)[C@H](O)[C@@H]1O [α-MM, α-methyl mannoside] | could not provide similar inhibition | non-competitive | – | – | 1.3 ± 0.2 DPM × 10^-3 | – | more effective inhibitor than myo-inositol | – | – | – | a more potent inhibitor than inositol | ~50% | ~50% | 99% |
